Data taken from patent US20050222126A1, “Antiangiogenic compounds and an assay for inhibitors of cell invasion” (priority 2001, published 2005).
Entries after “also recorded” stand apart in the source; their conditions may differ.

Key:
axonal growth cones = experiment: Neuronal migration in insect embryo model; assay type: in vivo; conditions: 5 μM
Procedure: Synthetic dihydromotuporamine (DiH-MPC, 5 μM) affected neuronal migration in a well-characterized insect embryo model. DiH-MPC slowed stereotypical migration of axonal growth cones whose ultimate synaptic targets are in the central nervous system (CNS). […] Therefore, the motuporamines have application in situations where reduced axonal sprouting would be of benefit after CNS wounding. This is of particular interest in spinal cord lesions where wound-induced axonal sprouting and migration (i.e. plasticity) leads to the inappropriate intermingling of neuronal pathways, which is a major impediment to clinically efficacious CNS regeneration.

MDA 231 cells [1] = experiment: Assay for invasion inhibitors (Matrigel, recovery of non-invading cells, MTT); assay type: cell-based, human; conditions: for IC50: 2.5 h, read-out: IC50 invasion inhibition
Procedure: Matrigel (Collaborative Biomedical Products, Bedford, Mass.) was diluted 1:1 in ice-cold DMEM/F12 and 50 μl was pipetted into wells of ice-cold 96-well cell culture plates (Falcon) using ice-cold pipette tips, avoiding the sides of each well. The matrix was then allowed to gel and then dry overnight in a dry 37° C. incubator followed by rehydration with 100 μl of growth medium 1 h prior to cell plating. This treatment produces a matrix that is less prone to breakage. On top of the Matrigel, was added 100 μl medium warmed to 37° C., with or without 1 μl of sponge extract dissolved in DMSO, followed by 100 μl medium containing 60,000 MDA 231 cells. Addition of 1 μl of DMSO served as a negative control. 50 μM […] LY294002, a phosphatidylinositol 3-kinase inhibitor known to inhibit invasion, served as a positive control. The cells were then incubated for 2.5 h to allow invasion to take place.
Most of the cell culture, medium was removed without disturbing the cells. This may be accomplished using a hand-held pipettor, but more consistent results are achieved using the aspiration function of a Bio-Tek Elx405 96-well plate washer with the aspiration needle positioned about 2 mm above the surface of the Matrigel. […] The cells were then suspended by pipetting up and down three times using the 100 μl setting of a hand-held pipettor, and 100 μl was withdrawn and transferred to fresh plates without Matrigel containing 100 μl medium supplemented with 30% fetal calf serum to inactivate the trypsin. The cells were then incubated overnight to allow attachment of cells to the plastic surface. Live cells were measured using the MTT assay: the cell culture medium was replaced with 100 μl fresh medium and 25 μl of a 5 mg/ml solution of 3(4,5-dimethylthiazol-2-yl)-2,5-diphenyltetrazolium bromide in phosphate-buffered saline. After 2 hr at 37° C., the solution was removed and 100 μl of 20% sodium dodecyl sulfate dissolved in dimethylformamide: water (1:1) was added to lyse the cells. After overnight incubation at 37° C., absorbance was measured at 570 nm.

MDA 231 cells [2] = experiment: Cytotoxicity: cell proliferation after 24 h incubation with compound; assay type: cell-based, human; conditions: for effects on cell proliferation: 24 h, proliferation followed up to 5 additional days
Procedure: The cytotoxic effects of Motuporamine C were examined by incubating cells in the presence of different concentrations of the compound for 24 h. Motuporamine C was washed away and cell proliferation was measured for up to 5 additional days. […] Likewise, the compounds shown in FIGS. 1, 2, 4, 5, 6, and 8-13 have low cytotoxicity.

MDA 231 cells [3] = experiment: Cell spreading and actin cytoskeleton on tissue culture plastic; assay type: cell-based, human
Procedure: The cells were plated on rigid tissue culture plastic in the presence of serum, which contains spreading factors (Ham). Under these conditions, most MDA 231 cells spread on the plastic within 4 h in the absence of Motuporamine C. […] These ruffles, which appear black in phase contrast microscopy represent sites of dynamic actin-mediated membrane movement in both spreading and migrating cells. […] These rounded cells remained attached to the tissue culture plastic by small lamellae that had small, discontinuous ruffles.
MDA 231 cells were also pre-spread for 20 hours on tissue culture plastic and then treated with Motuporamine C (5 μM) for 4 hours.

MDA 231 cells [4] = experiment: Cell migration: closure of gap in confluent monolayer; assay type: cell-based, human; conditions: 5 μM, 24 hours
Procedure: The effects of Motuporamine C on cell spreading and actin ruffling indicates invasion inhibition by decreasing cell migration. A sterile toothpick was drawn across a confluent monolayer of MDA 231 cells, leaving a cell-free gap of about 100 μm. Closure of the gap by cell migration was monitored by microscopy. In the absence of Motuporamine C, cells migrated into the gap and essentially closed it within 24 hours. These cells had broad lamellar ruffles along their leading edges throughout which were condensations of actin. […] These cells had only small and discontinuous ruffles along their leading edges and contained only small discrete patches of actin, looking similar to the “button-like” condensations observed in pre-spread cells.

HUVEC [5] = experiment: Endothelial sprouting assay; assay type: cell-based, human; conditions: VEGF 15 ng/ml
Procedure: Endothelial sprouting was assessed by a modification of Nehls, V. and Drenckham, D. (1995) Microvasc. Res, 50:311-322). Microcarrier beads coated with denatured collagen (Cytodex 3, Sigma) were seeded with HUVEC. When the cells reached confluence an the beads, equal numbers of HUVEC-coated beads were embedded in fibrin gels in 96-well plates. For preparation of fibrin gels, bovine fibrinogen was dissolved in MCDB medium at a concentration of 2.5 mg/ml. Aprotinin was added at a concentration of 0.05 mg/ml and the solution was filtered through a 0.22 μm filter. The fibrinogen solution was supplemented with 15 ng/ml vascular endothelial growth factor (VEGF) with or without Motuporamine C. As a control, fibrinogen solution without VEGF or Motuporamine C was used. […] After 3 days of incubation with daily changes of the medium, the number of capillary-like tubes formed per microcarrier bead (sprouts/bead) was counted by microscopy. Only sprouts greater than 150 μm in length and composed of at least 3 endothelial cells were counted.
In the endothelial sprouting assay, human umbilical vein endothelial cells (HUVEC) are seeded onto collagen-coated beads. Exposure to vascular endothelial growth factor stimulates the formation of capillary-like tubes called sprouts, whose number and length may be measured over time by microscopy.

[6] = test system: chick chorioallantoic membrane; experiment: Chick chorioallantoic membrane assay (CAM) for angiogenesis; assay type: in vivo, chicken; conditions: VEGF 30 ng/ml
Procedure: Fertilized white Leghorn chicken eggs were incubated at 37° C. under conditions of constant humidity. On embryonic day 6, the developing chorioallantoic membrane (CAM) was separated form the shell by opening a small circular window at the broad end of the egg above the air sac. After removal of the inner membrane, the opening was sealed with Parafilm and the eggs were incubated for 2 more days. Motuporamine C was prepared in PBS supplemented with 30 ng/ml VEGF. On day 8, 20 μl was loaded onto 2 mm^3 gelatin sponges (Gelfoam, Pharmacia Upjohn) that were placed on the surface of the developing CAM. Sponges containing vehicle alone (20 μl PBS) were used as negative controls whereas sponges containing 20 μl of 30 ng/ml VEGF in PBS were used as positive controls, Eggs were resealed and returned to the incubator. On day 10, images of CAM were captured digitally using an Olympus SZX9 stereomicroscope equipped with a Sport RT digital imaging system (Diagnostics Instruments).

HUVEC [7] = experiment: HUVEC survival and proliferation; assay type: cell-based, human
Procedure: (§1) Motuporamine C had no effect on survival of confluent HUVEC at concentrations up to 10 μM and for up to 72 hours. […] Rather, Motuporamine C inhibited HUVEC migration as assessed using a modified Boyden chamber assay.

HUVEC [8] = experiment: HUVEC migration, modified Boyden chamber assay; assay type: cell-based, human; conditions: 2.5 μM and 5 μM, VEGF 15 ng/ml
Procedure: as §1

[9] = test system: Lewis Lung and SCCVII tumours; experiment: Tumour growth in vivo; conditions: i.p. daily, 10-15 mg/kg/day, mice
[10] = test system: primary Lewis lung tumour; experiment: Development of tumour metastases in vivo; conditions: i.p. 15 mg/kg/day, C57 mice, primary tumour irradiated
Procedure: Primary tumours were grown to a specific size and then irradiated permitting the animals to survive long enough for lung metastases to be quantified.

## NCCCNCCCN1CCCCCCCCCCCCCC1 [DiH-MPC, Dihydromotuporamine C]
Axonal growth cones
  migration of axonal growth cones: slowed
  steering or pathfinding of growth cones: no steering or pathfinding deficits

## NCCCNCCCN1CCCCCCCCCCCC1 [Motuporamine A]
MDA 231 cells [1]; MDA 231 cells on Matrigel
  IC50: 3000 nM

## NCCCNCCCN1CCCC/C=C\CCCCCCCC1 [Motuporamine C]
MDA 231 cells [1]; 5 μM
  detachment of cells from the matrix: did not cause the cells to detach
MDA 231 cells [1]; MDA 231 cells on Matrigel
  activity in the invasion inhibition assay (in words): strong activity; also recorded: slightly more active
  concentration that completely inhibited invasion: 5 µM
  IC50: 1000 nM
MDA 231 cells [2]; 1.6 μM
  effects on cell proliferation: no detectable effects
MDA 231 cells [2]; 4 and 8 μM
  effects on cell proliferation: mild inhibition
MDA 231 cells [2]; proliferating MDA 231 cells, low micromolar concentrations
  cytotoxicity (in words): little or no toxicity
MDA 231 cells [3]; plated on plastic with serum, 4 h, increasing doses up to 5 μM
  cell spreading: decreased cell spreading
MDA 231 cells [3]; pre-spread 20 hours, 5 μM for 4 hours
  rounding of pre-spread cells: did not round-up
MDA 231 cells [3]; pre-spread cells, 5 μM for 4 hours
  actin cytoskeleton (rhodamine-phalloidin staining): subtle changes
MDA 231 cells [3]; treatment up to 48 hours
  rounding of pre-spread cells: did not cause significant cell rounding
MDA 231 cells [4]
  cell migration (gap closure): slows cell migration
HUVEC [5]; 2.5 μM
  sprout formation in response to VEGF: clear inhibition
HUVEC [5]; 5 μM
  sprout formation in response to VEGF: complete inhibition
[6]
  angiogenesis in CAM assay: inhibits angiogenesis
HUVEC [7]
  proliferation rate of HUVEC: does not decrease
HUVEC [7]; up to 10 μM, up to 72 hours
  survival of confluent HUVEC: no effect
HUVEC [8]
  migration of HUVEC towards VEGF: inhibited the migration
[9]
  reduction in tumour growth rate compared to controls: 25-50%
  tumour growth compared to vehicle controls: significant decrease
[10]
  incidence of lung metastases: decreased incidence

## NCCCNCCCn1c2ccccc2c2ccccc21 [carbazole analog]
MDA 231 cells [1]; MDA 231 cells on Matrigel
  activity in the invasion inhibition assay (in words): potent activity
  IC50: 3000 nM

## C=C1[C@@H](C)[C@H]2[C@H](Cc3ccccc3)NC(=O)[C@]23[C@H](OC(C)=O)/C=C/[C@@](C)(O)C(=O)[C@@H](C)C/C=C/[C@H]3[C@@H]1O [cytochalasin D, reference compound]
MDA 231 cells [3]; 1 μg/ml
  actin cytoskeleton: complete disassembly of the actin filaments
  rounding of pre-spread cells: round up completely
